Measurements taken from PubChem BioAssay AID1023 (Columbia University Molecular Screening Center, 2008).

The compounds below were run on HUVEC TNFalpha-induced p65 nuclear translocation, imaging (assay: inhibitors of TNFa-induced NFkB p65 translocation, SAR follow-up, imaging, HUVEC (AID 1023)).

First: COc1cc2ccc(C)nc2c2c1-c1cc(C)ccc1S(=O)(=O)N2
Second: Cc1ccc2c(c1)-c1ccc3cccnc3c1NS2(=O)=O
The IC50 of the first is 1.6-fold higher: 0.886 µM for the first, 0.562 µM for the second.

`COc1ccc2c(c1)-c1ccc3cccnc3c1NS2(=O)=O` and `COc1ccc(S(=O)(=O)Nc2cccc3ccc(C)nc23)c([N+](=O)[O-])c1` are within 1.5-fold of each other in IC50: 0.992 µM for the first, 1.02 µM for the second.

`Cc1ccc2cccc(NS(=O)(=O)c3ccc(Cl)s3)c2n1` and `Cc1ccc2cccc(NS(=O)(=O)c3cccc([N+](=O)[O-])c3)c2n1` are within 1.5-fold of each other in IC50: 0.986 µM for the first, 0.911 µM for the second.
